Laboratory results published in ChEMBL document CHEMBL1165984, “Antiviral and anti-inflammatory diterpenoids from the soft coral Sinularia gyrosa” (J Nat Prod, 2010).
Activity calls are given as the source filed them. The rule behind the calls is not given here.

Tests used:
Yersinia enterocolitica = assay: Antimicrobial activity against Yersinia enterocolitica ATCC 23715 at 100 ug/disk; format: functional, organism-based
P388 = assay: Cytotoxicity against mouse P388 cells by MTT assay; format: functional, cell-based
Shigella sonnei = assay: Antimicrobial activity against Shigella sonnei ATCC 11060 at 100 ug/disk; format: functional, organism-based
Salmonella enteritidis = assay: Antimicrobial activity against Salmonella enteritidis ATCC 13076 at 100 ug/disk; format: functional, organism-based; conditions: Salmonella enterica subsp. enterica serovar Enteritidis
Serratia marcescens = assay: Antimicrobial activity against Serratia marcescens ATCC 25419 at 100 ug/disk; format: functional, organism-based
A549 = assay: Cytotoxicity against human A549 cells by MTT assay; format: functional, cell-based
Klebsiella aerogenes = assay: Antimicrobial activity against Enterobacter aerogenes ATCC 13048 at 100 ug/disk; format: functional, organism-based
RAW264.7 = assay: Antiinflammatory activity in mouse RAW264.7 cells assessed as iNOS protein expression level at 10 uM; format: functional
Human betaherpesvirus 5 = assay: Antiviral activity against HCMV infected in HEL cells assessed as reduction of virus plaque formation; format: functional, organism-based; conditions: Human betaherpesvirus 5, HEL

Row | Compound | inhibition (Yersinia enterocolitica) | inhibition (P388) | inhibition (Shigella sonnei) | inhibition (Salmonella enteritidis) | inhibition (Serratia marcescens) | inhibition (A549) | inhibition (Klebsiella aerogenes) | Activity (RAW264.7) [%] | IC50 (Human betaherpesvirus 5) [nM]
1 | C=C(CCC=C(C)C)[C@@H]1CC/C(C)=C/CCC(=C)[C@@H](O)C1 | inactive | inactive | inactive | inactive | inactive | inactive | inactive | – | –
2 | C=C(CCC=C(C)C)[C@H]1CC[C@@]2(C)[C@H](C1)C(C)=CC[C@@H]2O [GYROSANOL A] | inactive | inactive | inactive | inactive | inactive | inactive | inactive | 118.5 | 2600
